Test results reported in publication PMC10227015, “From a drug repositioning to a structure-based drug design approach to tackle acute lymphoblastic leukemia” (Nature Communications, 2023).
Read-outs that look alike come from different tables or passages of the source.

Columns and labels:
CCRF-CEM cell line = assay: dCK cellular assay: CCRF-CEM proliferation in the presence of dT and dC; assay type: cell-based, human
Experimental: The dCK cellular assay was set up to assess the ability to inhibit dCK activity in a cellular model. The model was developed with a T-cell acute lymphoblastic leukemia cell line (CCRF-CEM), because of its high dependence on the SP, thus on dCK activity. Cellular assays were performed to assess the inhibition of cell proliferation under two conditions: (i) in the presence of the compound alone to determine the nonspecific effect on cells, independent of dCK (nonspecific toxicity) and (ii) in the presence of an inhibitor of the DNP to determine the ability of compounds to inhibit dCK and decrease tumor proliferation (activity on dCK). The inhibitor of the DNP chosen for the experiments was thymidine (dT), a physiological inhibitor of ribonucleotide reductase which arrests cell proliferation in phase S. The dTTP produced via thymidine kinase from dT acts as a RNR inhibitor by an allosteric regulation of the R1 subunit. The addition of the nucleoside deoxycytidine (dC) in the medium allows the rescue of cell proliferation by passing only through the salvage pathway, mediated by dCK. dC needs to be added exogenously to mimic physiological concentrations because it is not present in the cell culture medium, on the contrary to mouse model, in which it is naturally present in the serum. Therefore, cell proliferation under these conditions (+dT +dC) is dCK dependent and it is possible to determine the IC50 of dCK inhibitors on the inhibition of cell proliferation. Results are expressed as % cell proliferation relative to the control with DMSO.
The amount of reduced dye formed by metabolically active cells was quantified by its fluorescence measured at 560 nm (excitation) and 590 nm (emission) in a microplate reader (CLARIOstar, BMG Labtech). A blank well without cells was used as a background control. Each experiment was performed at least three times (with technical triplicates) and data are presented as the mean ± SD.

dCK-C3S-S74E = assay: Thermal shift assay (TSA); conditions: for THERMAL SHIFT ASSAY +Tm (°): mean ± SD; for ΔTm (º) (TSA): Figure 2a, mean
[1] = Homo sapiens, read-out: dCK CELLULAR ASSAY IC50 (nM), CCRF-CEM, 200 µM dT and 1 µM dC, read-out: dCK […] ASSAY IC50
[2] = Homo sapiens, Figure 2a, CCRF-CEM cell line, mean, read-out: IC50 (nM) (Cell Prolif)

dCK-C3S-S74E, sequence (P27707 whole entry S74E, form open): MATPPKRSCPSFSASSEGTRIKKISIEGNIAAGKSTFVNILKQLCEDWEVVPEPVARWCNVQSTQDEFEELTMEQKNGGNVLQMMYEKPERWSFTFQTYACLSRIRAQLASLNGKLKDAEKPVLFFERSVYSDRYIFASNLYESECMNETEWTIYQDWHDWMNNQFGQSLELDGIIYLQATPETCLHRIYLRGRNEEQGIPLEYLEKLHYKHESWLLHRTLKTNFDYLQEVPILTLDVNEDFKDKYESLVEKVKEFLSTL

| Structure (SMILES) | IC50 (CCRF-CEM cell line; [1]) [nM] | THERMAL SHIFT ASSAY +Tm (°) (dCK-C3S-S74E) | IC50 (CCRF-CEM cell line; [2]) [nM] | ΔTm (º) (TSA) (dCK-C3S-S74E) | IC50 (CCRF-CEM cell line; Figure 2a, CCRF-CEM cell line, mean, read-out: IC50 (nM) (Cell Prolif)) |
| --- | --- | --- | --- | --- | --- |
| Cc1ccc(NC(=O)c2cnc(CN3CCN(C)CC3)nc2)cc1Nc1nc(-c2nccc(N)n2)cs1 [OR0125] | 37700 ± 4380 | 10.3 ± 0.0 |  |  |  |
| Cc1ccc(Oc2ccc(CN3CCN(C)CC3)cc2)cc1Nc1nc(-c2nccc(N)n2)cs1 [OR0143] | 2790 ± 1740 | 13.2 ± 0.2 |  |  |  |
| CN1CCN(CCc2ccc(-c3ccc4c(c3)N(c3nc(-c5nccc(N)n5)cs3)CCCC4)cc2)CC1 [OR0402] | 1760 ± 160 | 19.2 ± 0.3 |  |  |  |
| Cc1ccc(-c2ccc(CCN3CCN(C)CC3)cc2)cc1N(CC1CC1)c1nc(-c2nc(N)cc(N)n2)cs1 [OR0604] |  | 19.7 ± 1.0 | 609 | 19.7 º |  |
| Cc1ccc(-c2ccc(CCN3CCN(C)CC3)cc2)cc1N(CCC(C)C)c1nc(-c2nc(N)cc(N)n2)cs1 [OR0605] |  | 18.7 ± 0.6 | 2220 | 18.67 º |  |
| CCCCN(c1nc(-c2nc(N)cc(N)n2)cs1)c1cc(-c2ccc(CCN3CCN(C)CC3)cc2)ccc1C [OR0606] |  | 19.9 ± 0.5 | 552 | 19.85 º |  |
| Cc1ccc(-n2cc(CNS(C)(=O)=O)nn2)cc1N(CC(C)C)c1nc(-c2nc(N)cc(N)n2)cs1 [OR0609] |  | 13.5 ± 0.7 |  | 13.5 º | 3180 |
| Cc1ccc(-c2ccc(CCN3CCN(C)CC3)cc2)cc1N(CCN)c1nc(-c2nc(N)cc(N)n2)cs1 [OR0610] |  | 14.7 ± 0.2 | 16400 | 14.7 º |  |
| CCCN(c1nc(-c2nc(N)cc(N)n2)cs1)c1cc(-c2ccc(NC(=O)N3CCN(C)CC3)nc2)ccc1C [OR0616] |  | 19.2 ± 0.8 | 135 | 19.23 º |  |
| CCCN(c1nc(-c2nc(N)cc(N)n2)cs1)c1cc(-c2ccc(CN(C)C)cc2)ccc1C [OR0619] |  | 16.9 ± 0.5 | 614 | 16.88 º |  |
| CCCN(c1nc(-c2nc(N)cc(N)n2)cs1)c1cc(-c2cccnc2)ccc1C [OR0620] |  | 15.7 ± 0.5 | 407 | 15.71 º |  |
| CCCN(c1nc(-c2nc(N)cc(N)n2)cs1)c1cc(-c2ccc(C(=O)N3CCOCC3)nc2)ccc1C [OR0621] |  | 16.6 ± 0.9 | 169 | 16.63 º |  |
| CCCN(c1nc(-c2nc(N)cc(N)n2)cs1)c1cc(-c2ccc(C(=O)OC)nc2)ccc1C [OR0622] |  | 16.5 ± 0.1 | 416 | 16.54 º |  |
| CCCN(c1nc(-c2nc(N)cc(N)n2)cs1)c1cc(-c2ccc(NS(=O)(=O)N3CCN(C)CC3)nc2)ccc1C [OR0625] |  | 16.8 ± 0.7 | 353 | 16.82 º |  |
| CCCN(c1nc(-c2nc(N)cc(N)n2)cs1)c1cc(-c2ccc3[nH]ccc3c2)ccc1C [OR0626] |  | 16.9 ± 0.5 | 5750 | 16.85 º |  |
| CCCN(c1nc(-c2nc(N)cc(N)n2)cs1)c1cc(-c2ccc(OCCN3CCN(C)CC3)nc2)ccc1C [OR0629] |  | 20.6 ± 0.1 | 139 | 20.6 º |  |
| Cc1ccc(-c2ccc(S(=O)(=O)N3CCN(C)CC3)cc2)cc1N(C)c1nc(-c2nc(N)cc(N)n2)cs1 [OR0631] |  | 16.8 ± 0.1 | 2740 | 16.75 º |  |

Further lines, results first:

| IC50 (CCRF-CEM cell line; [1]) [nM] | THERMAL SHIFT ASSAY +Tm (°) (dCK-C3S-S74E) | IC50 (CCRF-CEM cell line; [2]) [nM] | ΔTm (º) (TSA) (dCK-C3S-S74E) | IC50 (CCRF-CEM cell line; Figure 2a, CCRF-CEM cell line, mean, read-out: IC50 (nM) (Cell Prolif)) | Structure (SMILES) |
| --- | --- | --- | --- | --- | --- |
|  | 17.8 ± 0.1 | 413 | 17.75 º |  | CCN(c1nc(-c2nc(N)cc(N)n2)cs1)c1cc(-c2ccc(S(=O)(=O)N3CCN(C)CC3)cc2)ccc1C [OR0632] |
|  | 17.3 ± 0.1 | 140 | 17.25 º |  | CCCN(c1nc(-c2nc(N)cc(N)n2)cs1)c1cc(-c2ccc(S(=O)(=O)N3CCN(C)CC3)cc2)cc(F)c1C [OR0633] |
|  | 17.7 ± 0.9 | 301 | 17.68 º |  | Cc1ccc(-c2ccc(S(=O)(=O)N3CCN(C)CC3)cc2)cc1N(c1nc(-c2nc(N)cc(N)n2)cs1)C(C)C [OR0636] |
| 84 ± 49 | 20.5 ± 0.9 | 88.3 | 20.49 º |  | Cc1ccc(-c2ccc(S(=O)(=O)N3CCN(C)CC3)cc2)cc1N(CC(C)C)c1nc(-c2nc(N)cc(N)n2)cs1 [OR0637] |
|  | 20.2 ± 0.9 | 35 | 20.22 º |  | CCCN(c1nc(-c2nc(N)cc(N)n2)cs1)c1cc(-c2ccc(S(=O)(=O)N3CCN(CC)CC3)cc2)ccc1C [OR0638] |
|  | 20.7 ± 0.9 | 119 | 20.72 º |  | CCCN(c1nc(-c2nc(N)cc(N)n2)cs1)c1cc(-c2ccc(S(=O)(=O)N3CCNCC3)cc2)ccc1C [OR0639] |
|  | 18.2 ± 0.9 | 3670 | 18.22 º |  | CCCN(c1nc(-c2nc(N)cc(N)n2)co1)c1cc(-c2ccc(S(=O)(=O)N3CCN(C)CC3)cc2)ccc1C [OR0640] |
| 10.5 ± 5 | 21.1 ± 1.1 | 10 | 21.11 º |  | CCCN(c1nc(-c2nc(N)cc(N)n2)cs1)c1cc(-c2ccc(S(=O)(=O)N3CCN(C)CC3)cc2Cl)ccc1C [OR0641] |
| 46 ± 18 | 20.2 ± 0.9 | 45.7 | 20.22 º |  | CCCN(c1nc(-c2nc(N)cc(N)n2)cs1)c1cc(-c2ccc(S(=O)(=O)N3CCN(C)CC3)cc2F)ccc1C [OR0643] |
|  | 20.5 ± 1.2 | 12.1 | 20.5 º |  | CCCN(c1nc(-c2nc(N)cc(N)n2)cs1)c1cc(-c2c(F)cc(S(=O)(=O)N3CCN(C)CC3)cc2OC)ccc1C [OR0644] |
| 67 ± 22 | 19.7 ± 0.9 | 67.4 | 19.72 º |  | CCCN(c1nc(-c2nc(N)cc(N)n2)cs1)c1cc(-c2ccc(S(=O)(=O)N3CCN(C)CC3)cc2OC)ccc1C [OR0645] |
|  | 22.4 ± 1.1 | 171 | 22.39 º |  | CCCN(c1nc(-c2nc(N)cc(N)n2)cs1)c1cc(-c2ccc(S(=O)(=O)C3CCNCC3)cc2)ccc1C [OR0646] |
| 10.9 ± 4.1 | 21.1 ± 1.6 | 11 | 21.06 º |  | CCCN(c1nc(-c2nc(N)cc(N)n2)cs1)c1cc(-c2c(F)cc(S(=O)(=O)N3CCN(C)CC3)cc2F)ccc1C [OR0647] |
|  | 22.3 ± 1.1 | 134 | 22.28 º |  | CCCN(c1nc(-c2nc(N)cc(N)n2)cs1)c1cc(-c2ccc(S(=O)(=O)N3CCC(N)CC3)cc2)ccc1C [OR0648] |
|  | 18.6 ± 1.5 | 120 | 18.61 º |  | CCCN(c1nc(-c2nc(N)cc(N)n2)cs1)c1cc(-c2ccc(S(=O)(=O)N3CCN(C)CC3)c(OC(F)(F)F)c2)ccc1C [OR0650] |
| 1520 ± 178 | 20.8 ± 1.2 | 1530 | 20.83 º |  | CCCN(c1nc(-c2nc(N)cc(N)n2)cs1)c1cc(-c2ccc(S(=O)(=O)NCCN)cc2)ccc1C [OR0651] |
